Assay results from patent US20210382037A1, “IDENTIFICATION AND USE OF CYTOTOXIC T LYMPHOCYTE (CTL) ANTIGEN-SPECIFIC TARGET CELL KILLING ENHANCER AGENTS” (DANA-FARBER CANCER INSTITUTE, INC., priority 2017, published 2021).

Columns and labels:
[1] = test system: ID8-lucOS cells (OVA-expressing ID8 target cells) co-cultured with OT-I CD8+ T cells; assay: OT-I CTL assay, high-throughput compound screen and dose-response validation; assay type: cell-based, mouse; settings: for effect on OT-I T cell killing of ID8-lucOS target cells, dose-response validation: dose-response curves; for effect on OT-I T cell killing of ID8-lucOS target cells, dose-response validation / effect on OT-I T cell-mediated target cell lysis (normalized firefly/renilla luciferase ratio relative to DMSO): 48 hr; for effect on OT-I T cell-mediated target cell lysis (normalized firefly/renilla luciferase ratio relative to DMSO): pilot screen, 1 μM, duplicate plates
Method: 10,000 ID8-lucOS and 10,000 ID8-rluc cells were plated in 1004, of cell culture media (DMEM+10% FBS+pen/strep) in solid white, flat-bottomed, tissue culture-treated 96-well plates (Thermo Fisher, Waltham, Mass.). Overnight-stimulated OT-I CD8^+ T cells were then added at the designated Effector:Target ratios with or without compounds in a total volume of 200 μL. Plates were incubated for 48 hr at 37° C. and 5% CO2. After 48 hr timepoint, 1004, of media was removed prior to dual-luciferase assay. Briefly: 504, of homemade Dual-Glo® luciferase buffer (Lu et al. Science 343: 305-309) was added to wells and incubated for 30 min before analysis of Firefly luminescence; then 504, of Dual-Glo® Stop & Glo® buffer was added, plates were incubated for 30 min, then analyzed for Renilla luminescence. An EnSpire plate reader (PerkinElmer, Waltham, Mass.) was used for quantification of luminescence. 203 compounds (listed above; details for LINCS kinase library can be found at lincs.hms.harvard.edu/db/sm/) were screened in high-throughput at 1 μM final concentration in duplicate, in 96-well plates in a first set that contained both OT-I CTLs and ID8 target cells and in a second set that contained ID8 target cells only. No compounds were placed in edge wells and all plates contained multiple DMSO control cells. Hits were calculated based on ΔΔCt method whereby ΔΔCt=(FLucDMSO/RLucDMSO)/(FLucCompound/RLucCompound) where values >1 were assessed as having augmented CTL killing, values ˜1 were assessed as having negligible immunomodulatory effect, and values <1 were assessed as having inhibited CTL killing. Hits from the high-throughput screen were validated with dose response curves using the indicated drug concentrations.
For development of the OT-I IO assay, the ID8 murine serous ovarian carcinoma cell line was utilized due to its constitutive expression of MHC class-I, MHC haplotype compatibility with C57BL/6J mice, and dramatic IFN-γ-induced upregulation of PD-L1 (FIG. 10A and FIG. 10B). ID8s were transduced with pLVX vectors to express either firefly luciferase and OVA model antigen (“lucOS”) or renilla luciferase and no model antigen (“rluc”) (FIG. 2A). Target ID8 cell lines were mixed at a 1:1 ratio and co-cultured with CD8+ T cells isolated from the spleens of OT-I TCR-transgenic mice; OT-I mice express transgenic TCRα-V2 and TCRβ-V5 genes such that all CD8+ T cell receptors recognize chicken ovalbumin residues 257-264 ([…]) in the context of H-2Kb (Hogquist et al., 1994 Cell, 76:17-27). Target cell-T cell cultures were incubated with compounds for 48 hr and then analyzed by dual-luciferase assay whereby changes in firefly signal relative to controls indicated modulation of T cell killing by compound treatment (FIG. 2B and FIG. 2C).
A high-throughput assay capable of identifying test compounds that specifically impaired or enhanced CD8^+ T cell-mediated killing of target ID8-lucOS “clone B9” cells in an antigen-specific manner was developed, as depicted in FIG. 2B. In such assays, a 96-well tissue culture plate array format was employed, and in each well, 10,000 ID8-lucOS and 10,000 ID8-rluc were co-plated. […] The OT-I assay was then performed as a high-throughput screen (FIG. 2C) to evaluate test compounds for immunomodulatory effects upon antigen-specific tumor cell killing by cytotoxic T lymphocytes (CTLs). Inclusion of ID8-lucOS and ID8-rluc in each well of the array-formatted test compound assay provided in-plate normalization controls, which allowed for identification of test compounds that effected non-specific growth inhibition or induction of apoptosis, versus identification of modulation by screen compounds of antigen-specific tumor cell killing by cytotoxic T lymphocytes. Such high-throughput screening was performed under standard ID8 cell growth conditions (37° C. and 5% 02) for initial rounds of test compound screening. […]

[2] = test system: IFN-γ secretion by OT-I CD8+ T cells; assay: OT-I IFN-γ ELISA; assay type: cell-based, mouse; settings: supernatants at 48 hr; 100, 50, 10, 5, 1 nM; E:T 1:1 and 2:1
Method: The supernatants from OT-I CTL assays, as described above, were harvested at the 48 hr timepoint prior to dual luciferase assay and analyzed for IFN-γ secretion by LEGEND MAX™ Mouse IFN-γ ELISA Kit (Biolegend, San Diego, Calif.) according to the manufacturer's protocol. […] Conditions were assayed with four replicate wells per experiment.
Cell culture media from the OT-I IO assay was harvested from wells following 48 hr of culture with a range of EGFR inhibitors and the JAK2 inhibitor AZD-1480 and assessed for IFN-γ levels by ELISA. Secretion of IFN-γ was used as a proxy for OT-I T cell effector function. […] None of the EGFR inhibitors affected IFN-γ secretion, leading to the conclusion that the immunomodulatory effect of EGFR inhibition in the assay was not due to T cell-intrinsic effects.

MC38 colon cancer cells = assay type: in vivo; settings: log-rank Mantel-Cox
Method: C57BL/6J stock #000664 mice (Jackson labs, Bar Harbor, Me.) were challenged subcutaneously with 500,000 MC38 colon cancer cells on their flanks and “enrolled” on-study when tumors reached 50 mm^3. […] Depleting aCD8α was administered two days prior to first aPD-1 treatment. Mice used in experiments were 7-8 weeks of age at time of tumor challenge. Endpoint was considered to be when tumors reached a size of 2000 mm^3 or as mandated by institutional guidelines due to development of necrotic lesions.
Specifically, for each of the experiments, C57BL/6J mice were challenged subcutaneously with 500,000 MC38 colon cancer cells on their flanks and “enrolled” on-study when tumors reached 50 mm^3. […] Flank tumor growth curves were analyzed using two-way ANOVA, bar graphs were analyzed using unpaired Student's t-test, and survival experiments used the log-rank Mantel-Cox test for survival analysis, all indicated with *p<0.05; **p<0.01; ***p<0.001.

r/m SCCHN = r/m SCCHN patients; cited from earlier work
[3] = test system: OVA-expressing KP cells (Kras^G12D/p53^−/− lung adenocarcinoma) co-cultured with OT-I CD8+ T cells; settings: KP-Cas9 lucOS cells co-cultured with OT-I CD8+ T cells
From the text: The KP cell line was transduced with the same vectors to stably express Cas9 and the lusOS construct and co-cultured with OT-I CD8+ T cells.

[4] = test system: MHC class-I (H-2K^b) on ID8 tumor cells; assay: Flow cytometry of MHC class-I expression, ID8; assay type: cell-based, mouse; settings: 100 nM, 48 hr, vs DMSO; for basal expression of MHC class-I by ID8 tumor cells: no IFN-γ; for MHC class-I expression induced by physiological levels of IFN-γ, ID8 tumor cells: with recombinant mouse IFN-γ
Method: 100,000 ID8-lucOS, ID8-lucOS sgEGFR KO, Kras^G12D;p53^−/−, and MC38 cell lines were cultured in 12-well plates in 2 mL of culture media (DMEM+10% FBS+pen/strep) alone or supplemented with 4 ng/mL recombinant mouse IFN-γ (Biolegend, San Diego, Calif.) for 48 hr. […] Data were analyzed using FlowJo (Ashland, Oreg.) software version 10.0.9.

[5] = molecular target: chicken ovalbumin residues 257-264 (SIINFEKL) in the context of H-2Kb, presented on ID8-lucOS cells (mouse; chicken); assay: cell-based or functional assay

O=C1Nc2cc(Br)ccc2C1=C1Nc2ccccc2C1=O [6-bromoindirubin]
effect on OT-I T cell killing of ID8-lucOS target cells, dose-response validation [1]: only modestly augmented T cell killing
effect on OT-I T cell-mediated target cell lysis (normalized firefly/renilla luciferase ratio relative to DMSO) [1]: significantly augmented T cell killing

Cc1cc(Nc2nc(N[C@@H](C)c3ncc(F)cn3)ncc2Cl)n[nH]1 [AZD-1480]
IFN-γ secretion (ELISA) [2]: significantly inhibited IFN-γ secretion in a dose-dependent manner
effect on OT-I T cell killing of ID8-lucOS target cells, dose-response validation [1]: significantly inhibited T cell killing
effect on OT-I T cell-mediated target cell lysis (normalized firefly/renilla luciferase ratio relative to DMSO) [1]: inhibited T cell-mediated target cell lysis

O=C(O)c1ccc(Nc2ncc3c(n2)-c2ccc(Cl)cc2C(c2c(F)cccc2F)=NC3)cc1 [MLN8054]
effect on OT-I T cell-mediated target cell lysis (normalized firefly/renilla luciferase ratio relative to DMSO) [1]: inhibited T cell-mediated target cell lysis

COc1cc(OC)c(/C=C/S(=O)(=O)Cc2ccc(OC)c(NCC(=O)O)c2)c(OC)c1 [Rigosertib]
effect on OT-I T cell-mediated target cell lysis (normalized firefly/renilla luciferase ratio relative to DMSO) [1]: inhibited T cell-mediated target cell lysis

CC(C)(C)c1cnc(CSc2cnc(NC(=O)C3CCNCC3)s2)o1 [SNS-032]
effect on OT-I T cell-mediated target cell lysis (normalized firefly/renilla luciferase ratio relative to DMSO) [1]: inhibited T cell-mediated target cell lysis

CN1C(=O)c2ccccc2N(C)c2nc(Nc3ccc(N4CCC(O)CC4)cc3)ncc21 [XMD-12-1]
effect on OT-I T cell-mediated target cell lysis (normalized firefly/renilla luciferase ratio relative to DMSO) [1]: inhibited T cell-mediated target cell lysis

CN(C)C/C=C/C(=O)Nc1cc2c(Nc3ccc(F)c(Cl)c3)ncnc2cc1O[C@H]1CCOC1 [afatinib]
IFN-γ secretion (ELISA) [2]: did not appear to exert any enhancing effect
survival relative to controls (MC38 colon cancer cells): none
reported ORR to monotherapy (r/m SCCHN): 10%
OT-I T cell-mediated lysis of OVA-expressing KP cells [3]: significantly enhanced
lysis of OVA-expressing ID8 target cells ([1]; concentrations down to 10 nM): lysis of almost all OVA-expressing ID8 target cells
effect on OT-I T cell killing of ID8-lucOS target cells, dose-response validation [1]: significantly augmented OT-I T cell killing
basal expression of MHC class-I by ID8 tumor cells [4]: significantly increased
MHC class-I expression induced by physiological levels of IFN-γ, ID8 tumor cells [4]: significantly increased

C#Cc1cccc(Nc2ncnc3cc(OCCOC)c(OCCOC)cc23)c1 [erlotinib]
IFN-γ secretion (ELISA) [2]: did not appear to exert any enhancing effect
OT-I T cell-mediated lysis of OVA-expressing KP cells [3]: significantly enhanced
effect on OT-I T cell killing of ID8-lucOS target cells, dose-response validation [1]: confirmed to augment T cell-mediated tumor cell lysis
effect on OT-I T cell-mediated target cell lysis (normalized firefly/renilla luciferase ratio relative to DMSO) [1]: significantly augmented T cell killing
basal expression of MHC class-I by ID8 tumor cells [4]: significantly increased
MHC class-I expression induced by physiological levels of IFN-γ, ID8 tumor cells [4]: significantly increased

COc1cc2ncnc(Nc3ccc(F)c(Cl)c3)c2cc1OCCCN1CCOCC1 [gefitinib]
IFN-γ secretion (ELISA) [2]: did not appear to exert any enhancing effect
OT-I T cell-mediated lysis of OVA-expressing KP cells [3]: significantly enhanced
effect on OT-I T cell killing of ID8-lucOS target cells, dose-response validation [1]: significantly augmented OT-I T cell killing
basal expression of MHC class-I by ID8 tumor cells [4]: significantly increased
MHC class-I expression induced by physiological levels of IFN-γ, ID8 tumor cells [4]: significantly increased

O=C1Nc2ccccc2/C1=C1/Nc2ccccc2C1=O [indirubicin]
effect on OT-I T cell killing of ID8-lucOS target cells, dose-response validation [1]: only mildly immunomodulatory

C=CC(=O)Nc1cc(Nc2nccc(-c3cn(C)c4ccccc34)n2)c(OC)cc1N(C)CCN(C)C [osimertinib]
effect on OT-I T cell killing of ID8-lucOS target cells, dose-response validation [1]: modestly enhanced killing

O=c1sn(-c2cccc3ccccc23)c(=O)n1Cc1ccccc1 [tideglusib]
effect on OT-I T cell killing of ID8-lucOS target cells, dose-response validation [1]: only mildly immunomodulatory

OT-I transgenic T cell receptor (TCRα-V2 / TCRβ-V5) on OT-I CD8+ T cells
% killing of OVA-expressing ID8-lucOS target cells (dual-luciferase assay, 48 hr) [5]: 50 % killing

pembrolizumab
reported ORR to monotherapy (r/m SCCHN): 16%
